From ChEMBL document CHEMBL1212880, “Discovery of (2,4-dihydroxy-5-isopropylphenyl)-[5-(4-methylpiperazin-1-ylmethyl)-1,3-dihydroisoindol-2-yl]methanone (AT13387), a novel inhibitor of the molecular chaperone Hsp90 by fragment based drug design” (J Med Chem, 2010)
Converted amounts (≈) assume the structure as drawn. One block for each compound: values may come before it. The source made the active and inactive calls. The calls are words filed in the database; no cut-off is given here.

Experiments:
[1] = physchem; conditions: buffer, pH 7.4
[2] = biological target: T1, hERG (KCNH2) (Homo sapiens, UniProt Q12809); experiment: in vitro; conditions: HEK293 cells expressing hERG
T1 sequence (Q12809 whole entry): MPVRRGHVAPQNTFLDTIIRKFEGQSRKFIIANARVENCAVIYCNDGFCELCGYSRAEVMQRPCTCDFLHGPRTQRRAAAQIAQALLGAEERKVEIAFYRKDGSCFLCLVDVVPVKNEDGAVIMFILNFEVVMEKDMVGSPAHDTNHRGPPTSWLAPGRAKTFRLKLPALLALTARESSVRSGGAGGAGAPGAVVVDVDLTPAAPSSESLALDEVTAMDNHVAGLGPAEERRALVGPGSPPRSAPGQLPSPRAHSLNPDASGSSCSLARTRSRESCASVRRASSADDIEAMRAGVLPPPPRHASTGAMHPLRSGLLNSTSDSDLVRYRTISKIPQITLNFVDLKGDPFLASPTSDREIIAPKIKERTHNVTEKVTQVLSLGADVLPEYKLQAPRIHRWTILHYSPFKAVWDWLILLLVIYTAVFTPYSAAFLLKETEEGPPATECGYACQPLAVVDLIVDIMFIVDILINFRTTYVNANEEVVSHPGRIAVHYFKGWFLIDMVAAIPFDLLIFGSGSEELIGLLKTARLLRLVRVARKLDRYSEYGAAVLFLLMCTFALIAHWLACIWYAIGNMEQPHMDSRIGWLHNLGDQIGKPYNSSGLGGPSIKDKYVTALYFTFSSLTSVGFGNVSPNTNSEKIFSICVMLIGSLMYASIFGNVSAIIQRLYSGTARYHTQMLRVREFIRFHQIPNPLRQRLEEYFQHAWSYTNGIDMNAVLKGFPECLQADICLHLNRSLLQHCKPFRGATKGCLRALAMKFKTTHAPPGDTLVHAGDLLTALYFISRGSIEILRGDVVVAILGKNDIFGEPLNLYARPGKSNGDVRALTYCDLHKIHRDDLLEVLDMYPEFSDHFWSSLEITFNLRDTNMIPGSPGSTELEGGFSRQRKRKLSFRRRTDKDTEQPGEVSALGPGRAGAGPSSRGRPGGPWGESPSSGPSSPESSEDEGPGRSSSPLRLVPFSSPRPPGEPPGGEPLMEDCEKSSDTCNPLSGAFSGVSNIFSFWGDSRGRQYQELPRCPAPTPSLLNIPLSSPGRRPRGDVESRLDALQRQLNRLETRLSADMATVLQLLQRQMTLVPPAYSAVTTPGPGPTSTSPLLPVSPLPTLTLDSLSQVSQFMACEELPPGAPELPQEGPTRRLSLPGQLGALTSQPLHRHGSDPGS
Description: Inhibition of human ERG expressed in HEK293 cells at 30 uM by patch clamp assay

[3] = biological target: T1, hERG (KCNH2); experiment: in vitro; conditions: HEK293 cells expressing hERG; remark: listed apart in the source
Description: Inhibition of human ERG expressed in HEK293 cells at 3 uM by patch clamp assay

[4] = Dissociation constant, pKa of the compound; assay type: physicochemical
[5] = biological target: CYP3A4 (Homo sapiens, UniProt P08684); experiment: Inhibition of CYP3A4 at 10 uM; assay type: ADME
Chain of CYP3A4 (P08684 whole entry): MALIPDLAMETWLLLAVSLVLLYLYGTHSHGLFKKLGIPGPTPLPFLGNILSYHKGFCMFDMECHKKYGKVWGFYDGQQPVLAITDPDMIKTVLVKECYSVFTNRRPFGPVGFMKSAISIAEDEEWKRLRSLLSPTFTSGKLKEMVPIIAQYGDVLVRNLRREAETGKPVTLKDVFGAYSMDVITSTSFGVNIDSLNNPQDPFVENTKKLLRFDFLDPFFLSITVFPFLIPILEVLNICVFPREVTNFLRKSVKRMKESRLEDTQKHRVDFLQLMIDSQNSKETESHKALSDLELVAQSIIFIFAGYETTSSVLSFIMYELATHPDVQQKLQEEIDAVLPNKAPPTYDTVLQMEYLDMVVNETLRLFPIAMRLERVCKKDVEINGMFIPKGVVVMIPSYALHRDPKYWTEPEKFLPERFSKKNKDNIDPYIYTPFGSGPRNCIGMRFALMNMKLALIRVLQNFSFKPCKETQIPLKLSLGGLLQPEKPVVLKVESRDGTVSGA

[6] = test system: HCT-116; experiment: Antitumor activity against human HCT116 cells xenografted in BALB/c mouse assessed as inhibition of tumor growth at 80 mg/kg, ip qd for 8 days measured on day 10; assay type: functional; conditions: HCT-116, ip, route intraperitoneal
[7] = test system: HCT-116; experiment: Antitumor activity against human HCT116 cells xenografted in BALB/c mouse assessed as inhibition of tumor growth at 80 mg/kg, ip qd for 8 days measured on day 10 relative to control; assay type: functional; conditions: HCT-116, ip, route intraperitoneal
[8] = test system: HCT-116; experiment: Antitumor activity against human HCT116 cells xenografted in BALB/c mouse assessed as delay in tumor growth at 80 mg/kg, ip qd for 8 days; assay type: functional; conditions: route intraperitoneal
[9] = Drug level in human HCT116 cells xenografted nude BALB/c mouse tumor at 40 mg/kg, iv after 24 hrs; assay type: ADME, organism-based, Neoplasm, HCT-116; set-up: dose 40 mg/kg, route intravenous; conditions: read-out: Drug uptake
[10] = test system: HCT-116; experiment: Cytotoxicity against human HCT116 cells at 10 uM by Alamar blue assay; assay type: functional
[11] = Clearance in BALB/c mouse plasma at 10 mg/kg, iv; assay type: ADME, organism-based; set-up: dose 10 mg/kg, route intravenous
[12] = Intrinsic clearance in mouse liver S9 fraction; assay type: ADME, subcellular; conditions: for CL: s9
[13] = Protein binding in human plasma after 6 hrs by equilibrium dialysis method; assay type: ADME, cell-free; conditions: read-out: PPB (converted)
[14] = Protein binding in mouse plasma after 6 hrs by equilibrium dialysis method; assay type: ADME, cell-free; conditions: read-out: PPB (converted)
[15] = biological target: Cytochrome P450 2C19 (Homo sapiens, UniProt P33261); experiment: Binding affinity to CYP2C19; assay type: ADME
Chain of Cytochrome P450 2C19 (P33261 whole entry): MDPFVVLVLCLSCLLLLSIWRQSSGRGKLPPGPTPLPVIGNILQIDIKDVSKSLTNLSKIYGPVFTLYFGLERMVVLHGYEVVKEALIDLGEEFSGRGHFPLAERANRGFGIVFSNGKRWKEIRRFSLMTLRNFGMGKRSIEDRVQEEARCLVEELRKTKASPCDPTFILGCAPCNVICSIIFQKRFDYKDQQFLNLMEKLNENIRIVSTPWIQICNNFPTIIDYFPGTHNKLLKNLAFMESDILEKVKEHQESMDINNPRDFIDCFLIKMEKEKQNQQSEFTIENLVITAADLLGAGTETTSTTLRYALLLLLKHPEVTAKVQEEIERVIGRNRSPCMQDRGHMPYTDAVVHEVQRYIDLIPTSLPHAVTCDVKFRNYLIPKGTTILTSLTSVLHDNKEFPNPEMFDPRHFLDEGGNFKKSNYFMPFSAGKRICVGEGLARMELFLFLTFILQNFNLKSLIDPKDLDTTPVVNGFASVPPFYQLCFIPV

[16] = biological target: Cytochrome P450 2C9 (Homo sapiens, UniProt P11712); experiment: Binding affinity to CYP2C9; assay type: ADME
Chain of Cytochrome P450 2C9 (P11712 whole entry): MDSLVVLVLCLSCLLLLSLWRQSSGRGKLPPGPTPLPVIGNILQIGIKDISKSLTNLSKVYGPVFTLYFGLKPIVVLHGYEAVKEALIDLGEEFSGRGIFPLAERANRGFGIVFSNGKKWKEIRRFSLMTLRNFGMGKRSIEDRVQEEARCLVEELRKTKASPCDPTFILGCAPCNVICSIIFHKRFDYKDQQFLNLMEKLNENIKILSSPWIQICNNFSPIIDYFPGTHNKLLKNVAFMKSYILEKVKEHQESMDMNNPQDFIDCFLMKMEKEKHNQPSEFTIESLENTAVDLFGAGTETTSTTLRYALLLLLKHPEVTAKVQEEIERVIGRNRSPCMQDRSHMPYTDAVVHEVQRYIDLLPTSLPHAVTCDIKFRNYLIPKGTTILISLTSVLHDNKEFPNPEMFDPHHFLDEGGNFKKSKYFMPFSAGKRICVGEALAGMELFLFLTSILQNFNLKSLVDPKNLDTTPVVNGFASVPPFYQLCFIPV

[17] = Solubility of the compound in phosphate buffer at 15 mg at pH 5.5; assay type: physicochemical
[18] = Solubility of the compound in acetate buffer at 15 mg at pH 5.5; assay type: physicochemical
[19] = Solubility of the compound in phosphate buffer at 15 mg at pH 6.5; assay type: physicochemical
[20] = Solubility of the compound in lactate buffer at 15 mg at pH 4.2; assay type: physicochemical
[21] = test system: HCT-116; experiment: Antitumor activity against human HCT116 cells xenografted in BALB/c mouse assessed as inhibition of tumor growth at 80 mg/kg, ip qd for 8 days measured on day 12; assay type: functional; conditions: HCT-116, ip, route intraperitoneal
[22] = test system: HCT-116; experiment: Antitumor activity against human HCT116 cells xenografted in BALB/c mouse assessed as inhibition of tumor growth at 80 mg/kg, ip qd for 8 days measured on day 12 relative to control; assay type: functional; conditions: HCT-116, ip, route intraperitoneal
[23] = Drug level in human HCT116 cells xenografted nude BALB/c mouse tumor at 80 mg/kg, iv after 24 hrs; assay type: ADME, organism-based, Neoplasm, HCT-116; set-up: dose 80 mg/kg, route intravenous; conditions: read-out: Drug uptake
[24] = Half life in BALB/c mouse plasma at 2 to 10 mg/kg, iv; assay type: ADME, organism-based; set-up: dose 2-10 mg/kg, route intravenous
[25] = Thermal stability of the compound at 80 degC after 24 hrs; assay type: physicochemical
[26] = biological target: CYP2C9 (Homo sapiens, UniProt P11712); experiment: Inhibition of CYP2C9 at 10 uM; assay type: ADME
Chain of CYP2C9 (P11712 whole entry): as above

[27] = Half life in human HCT116 cells xenografted BALB/c mouse tumor at 60 mg/kg, ip; assay type: ADME, organism-based, Neoplasm, HCT-116; set-up: dose 60 mg/kg, route intraperitoneal
[28] = biological target: CYP2C19 (Homo sapiens, UniProt P33261); experiment: Inhibition of CYP2C19 at 10 uM; assay type: ADME
Chain of CYP2C19 (P33261 whole entry): as the sequence (P33261 whole entry) above

[29] = test system: HCT-116; experiment: Induction of apoptosis in human HCT116 cells assessed as reduction of Raf-1 level at 30 nM after 18 hrs by immunoblotting; assay type: functional, cell-based
[30] = test system: HCT-116; experiment: Induction of apoptosis in human HCT116 cells assessed as reduction of CDK4 level at 30 nM after 18 hrs by immunoblotting; assay type: functional, cell-based
[31] = Chemical stability of the compound after 144 hrs; assay type: physicochemical
[32] = Clearance in BALB/c mouse plasma at 2 to 10 mg/kg, iv; assay type: ADME, organism-based; set-up: dose 2-10 mg/kg, route intravenous
[33] = Half life in BALB/c mouse muscle at 60 mg/kg, ip; assay type: ADME, organism-based, Muscle tissue; set-up: dose 60 mg/kg, route intraperitoneal
[34] = Chemical stability of the compound after 48 hrs; assay type: physicochemical
[35] = test system: HCT-116; experiment: Induction of apoptosis in human HCT116 cells assessed as upregulation of Hsp70 level at 10 nM after 18 hrs by immunoblotting; assay type: functional, cell-based
[36] = Half life in BALB/c mouse blood at 60 mg/kg, ip; assay type: ADME, organism-based; set-up: dose 60 mg/kg, route intraperitoneal
[37] = Chemical stability of the compound after 24 hrs; assay type: physicochemical
[38] = Oral bioavailability in BALB/c mouse; assay type: ADME, organism-based; conditions: in vivo
[39] = test system: HCT-116; experiment: Antitumor activity against human HCT116 cells xenografted in BALB/c mouse assessed as inhibition of tumor growth at 60 mg/kg, ip qd for 3 days then no dose for 3 days for four dosing cycles measured on day 21; assay type: functional; conditions: HCT-116, ip, route intraperitoneal
[40] = test system: HCT-116; experiment: Antitumor activity against human HCT116 cells xenografted in BALB/c mouse assessed as inhibition of tumor growth at 60 mg/kg, ip qd for 3 days then no dose for 3 days for four dosing cycles measured on day 21 relative to control; assay type: functional; conditions: HCT-116, ip, route intraperitoneal
[41] = Volume of distribution at steady state in BALB/c mouse plasma at 2 to 10 mg/kg, iv; assay type: ADME, organism-based; set-up: dose 2-10 mg/kg, route intravenous; conditions: read-out: Vdss
[42] = test system: HCT-116; experiment: Cytotoxicity against human HCT116 cells at 100 uM by Alamar blue assay; assay type: functional
[43] = test system: HCT-116; experiment: Cytotoxicity against human HCT116 cells at 30 uM by Alamar blue assay; assay type: functional, cell-based

- logD [1]: 0.7
- pKa [4]: 10.2
SMILES: CC(C)c1cc(C(=O)N2Cc3ccc(NC4CCNCC4)cc3C2)c(O)cc1O
- inhibition at 30 µM [2]: 20%
- inhibition at 3 µM [3]: 10%

- logD [1]: 3.3
- pKa [4]: 6.9
SMILES: CC(C)c1cc(C(=O)N2Cc3ccc(CN4CCOCC4)cc3C2)c(O)cc1O
- inhibition at 30 µM [2]: 48%
- inhibition at 3 µM [3]: 25%

- inhibition at 10 µM [5]: < 50%
SMILES: CC(C)c1cc(C(=O)N2Cc3cccc(N4CCN(C)CC4)c3C2)c(O)cc1O
- inhibition at 30 µM [2]: 87%
- inhibition at 3 µM [3]: 41%

- logD [1]: 2.98
- concentration at 24 h [9]: 6.5 µM
- pKa [4]: 7.3
- clearance [11]: 130 mL/min/kg
- microsomal CLint ([12]; liver S9 fraction): 41 µL/min/mg
SMILES: CC(C)c1cc(C(=O)N2Cc3ccc(N4CCN(C)CC4)cc3C2)c(O)cc1O
- inhibition in vivo at 80 mg/kg [6]: 81%
- inhibition in vivo at 80 mg/kg [7]: 19%
- Activity [8]: 10.5 days
- inhibition at 30 µM [2]: 87%
- Activity [10]: 0%
- inhibition at 3 µM [3]: 41%

- fraction unbound at 6 h [13]: 0.36
- logD [1]: 2.1
- fraction unbound at 6 h [14]: 0.29
- pKa [4]: 6.8
SMILES: CC(C)c1cc(C(=O)N2Cc3ccc(C(=O)N4CCN(C)CC4)cc3C2)c(O)cc1O
- inhibition at 30 µM [2]: 49%
- inhibition at 3 µM [3]: 21%

- Activity [15]: Active
- logD [1]: 0.96
- Activity [16]: Active
- pKa [4]: 10.2
SMILES: CC(C)c1cc(C(=O)N2Cc3ccc(OCCCN)cc3C2)c(O)cc1O
- inhibition at 30 µM [2]: 42%
- inhibition at 3 µM [3]: 8%

- fraction unbound at 6 h [13]: 0.36
- solubility [17]: < 3 mg/mL
- solubility [18]: < 3 mg/mL
- logD [1]: 1.7
- solubility [19]: < 3 mg/mL
- pKa [4]: 9.05
- solubility [20]: < 3 mg/mL
SMILES: CC(C)c1cc(C(=O)N2Cc3ccc(NC4CCN(C)CC4)cc3C2)c(O)cc1O
- inhibition at 30 µM [2]: 72%
- inhibition at 3 µM [3]: 25%

- inhibition at 10 µM [5]: 34%
- logD [1]: 2.4
- pKa [4]: 7.85
- concentration at 24 h [23]: 11 µM
- clearance [11]: 170 mL/min/kg
- CL [12]: 34 µL/min/kg
SMILES: CC(C)c1cc(C(=O)N2Cc3ccc(OCCN(C)C)cc3C2)c(O)cc1O
- inhibition in vivo at 80 mg/kg [21]: 63%
- inhibition in vivo at 80 mg/kg [22]: 37%
- Activity [8]: 11.4 days
- inhibition at 30 µM [2]: 87%
- inhibition at 3 µM [3]: 45%

- half-life [24]: 54 min
- Stability [25]: Stable
- inhibition at 10 µM [26]: < 50%
- half-life [27]: 2.71 days
- fraction unbound at 6 h [13]: 0.36
- inhibition at 10 µM [28]: < 50%
- solubility [17]: > 30 mg/mL
- solubility [18]: > 30 mg/mL
- logD [1]: 2.7
- Stability [31]: Stable
- clearance [32]: 113 mL/min/kg
- half-life [33]: 180 min
- Stability [34]: Stable
- solubility [19]: 15 mg/mL (≈ 36.6 mM)
- half-life [36]: 282 min
- fraction unbound at 6 h [14]: 0.09
- Stability [37]: Stable
- pKa [4]: 7.7
- bioavailability [38]: 31%
- solubility [20]: > 30 mg/mL
- CL [12]: 46 µL/min/kg
- Vd [41]: 11 L/kg
SMILES: CC(C)c1cc(C(=O)N2Cc3ccc(CN4CCN(C)CC4)cc3C2)c(O)cc1O [ONALESPIB]
- Activity [29]: Active
- Activity [30]: Active
- inhibition at 30 µM [2]: 42%
- Activity [35]: Active
- inhibition at 3 µM [3]: 7%
- inhibition in vivo at 60 mg/kg [39]: 78%
- inhibition in vivo at 60 mg/kg [40]: 22%

- CL [12]: 4 µL/min/kg
SMILES: CC(C)c1cc(C(=O)N2Cc3ccccc3C2)c(O)c(F)c1O
- Activity [42]: 60%
- Activity [43]: inactive
